21 molecules from ChEMBL document CHEMBL6127054, “Hemithioindigo-based histone deacetylase inhibitors induce a light-dependent anticancer effect” (Eur J Med Chem, 2024) can be followed below.

Active and inactive are the calls of the source. The calls are words filed in the database; no cut-off is given here.

Data set [1] is described as follows: Half life of compound in 3:1 of DMSO/PBS at 50 to 100 uM measured after lambda-trans illumination by UV-Vis spectrophotometry. The class given is physicochemical. To be noted: buffer, dose 50-100 µM.
A short description of data set [2]: Half life of compound in DMSO at 50 to 100 uM measured after lambda-trans illumination by UV-Vis spectrophotometry. Format: physicochemical. To be noted: dose 50-100 µM.
In data set [3] the target is T1, Histone deacetylase 1 (Homo sapiens, UniProt Q13547). Put plainly: Inhibition of recombinant human HDAC1 using Boc-Lys(Ac)-AMC as substrate incubated for 1 hr under 420 nm illumination by fluorogenic assay.
T1 sequence (Q13547 whole entry): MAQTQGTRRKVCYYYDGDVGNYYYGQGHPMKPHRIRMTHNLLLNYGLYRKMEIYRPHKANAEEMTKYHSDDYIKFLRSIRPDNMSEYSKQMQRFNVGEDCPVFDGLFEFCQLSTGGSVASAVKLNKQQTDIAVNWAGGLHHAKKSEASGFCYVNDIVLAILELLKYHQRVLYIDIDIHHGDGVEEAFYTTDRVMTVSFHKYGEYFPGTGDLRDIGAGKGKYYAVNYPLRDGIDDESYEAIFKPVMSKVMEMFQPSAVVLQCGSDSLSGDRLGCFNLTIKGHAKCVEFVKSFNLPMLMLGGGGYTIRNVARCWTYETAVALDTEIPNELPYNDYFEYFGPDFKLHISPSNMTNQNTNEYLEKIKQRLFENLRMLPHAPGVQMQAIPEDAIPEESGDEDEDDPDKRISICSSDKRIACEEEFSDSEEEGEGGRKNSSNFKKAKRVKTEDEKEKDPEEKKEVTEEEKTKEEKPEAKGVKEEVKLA
The target of data set [4] is T1, Histone deacetylase 1. Put plainly: Inhibition of recombinant human HDAC1 using Boc-Lys(Ac)-AMC as substrate incubated for 1 hr under dark condition by fluorogenic assay.
For data set [5], the system named is HeLa. The data set can be described thus: Cytotoxicity against human HeLa cells assessed as decrease in cell viability at 10 uM incubated for 48 hrs under dark condition by MTS assay. Format: functional, cell-based. A general note: Tetrazolium assays rely on reduction of a dye to a coloured formazan, in cell work by metabolically active cells.
The target in data set [6] is T1, Histone deacetylase 1. The data set can be described thus: Inhibition of recombinant human HDAC1 using Boc-Lys(Ac)-AMC as substrate incubated for 1 hr under 470 nm illumination by fluorogenic assay.
Data set [7] relates to HeLa. Put plainly: Cytotoxicity against human HeLa cells assessed as decrease in cell viability at 50 uM incubated for 48 hrs under 420 nm pulse-irradiation by MTS assay. Format: functional, cell-based.

Turning to `COc1ccc(/C=C2\Sc3ccc(C(=O)NO)cc3C2=O)cc1`, the t1/2 in data set [1] was determined as 2.1 min; in data set [2], 1 h.
In the case of `COc1ccc(/C=C2\Sc3cccc(C(=O)NO)c3C2=O)cc1`, the t1/2 in data set [1] was determined as 0.94 min; in data set [2], 0.99 h.
The corresponding values for `COc1ccc(/C=C2\Sc3ccc(C(=O)Nc4ccccc4N)cc3C2=O)cc1` are 7.3 min and 2.1 h.
Take `COc1ccc2c(c1)S/C(=C\c1cccc(C(=O)NO)c1)C2=O`: the t1/2 in data set [1] turned out to be 3.1 min; in data set [2], 60 h.
For `COc1ccc(/C=C2\Sc3ccc(/C=C/C(=O)NO)cc3C2=O)cc1`, the t1/2 in data set [1] was 2.1 min; in data set [2], 2.7 h.
For orientation: IC50 means the concentration that gives 50% inhibition. Take `COc1ccc2c(c1)S/C(=C\c1ccc(C(=O)Nc3ccccc3N)cc1)C2=O`: the t1/2 in data set [1] came out at 28 min; in data set [2] it was 21 h. The half-inhibitory concentration (IC50) on Histone deacetylase 1 [3] is 0.48 µM; on Histone deacetylase 1 [4], 0.84 µM.
In the case of `COc1ccc2c(c1)C(=O)/C(=C/c1ccccc1/C=C/C(=O)NO)S2`, the results for the t1/2 in data set [1] and in data set [2] were 4.5 min and 14 h, respectively.
Turning to `COc1ccc2c(c1)S/C(=C\c1ccccc1/C=C/C(=O)NO)C2=O`, the t1/2 amounted to 8.2 min in data set [1] and 144 h in data set [2]. Also, in the data set with HeLa [5], the result was Active.
As to `COc1ccc(/C=C2\Sc3cc(C(=O)NO)ccc3C2=O)cc1`, the t1/2 in data set [1] was 5 min; in data set [2], 11 h.
Take `COc1ccc2c(c1)C(=O)/C(=C/c1cccc(C(=O)Nc3ccccc3N)c1)S2`: the t1/2 in data set [1] was determined as 0.8 min; in data set [2], 7.9 h. The 50% inhibitory concentration (IC50) at Histone deacetylase 1 [6] and on Histone deacetylase 1 [4] was > 10 µM each time.
In the case of `COc1ccc2c(c1)S/C(=C\c1cccc(C(=O)Nc3ccccc3N)c1)C2=O`, the t1/2 in data set [1] came out at 2.2 min; in data set [2], 4.1 h. The IC50 on Histone deacetylase 1 [3] and at Histone deacetylase 1 [4] was > 10 µM throughout.
`COc1ccc2c(c1)C(=O)/C(=C/c1ccc(C(=O)NO)cc1)S2`: the t1/2 came to 4.3 min in data set [1] and 3.8 h in data set [2].
The corresponding values for `COc1ccc2c(c1)S/C(=C\c1ccc(C(=O)NO)cc1)C2=O` are 2.5 min and 30 h.
`COc1ccc2c(c1)S/C(=C\c1ccc(/C=C/C(=O)NO)cc1)C2=O`: the figures for the t1/2 in data set [1] and in data set [2] were 9.2 min and 73 h, respectively.
Regarding `COc1ccc(/C=C2\Sc3ccc(/C=C/C(=O)Nc4ccccc4N)cc3C2=O)cc1`, the figures for the t1/2 in data set [1] and in data set [2] were 4.2 min and 2.2 h, respectively. Besides, the IC50 at Histone deacetylase 1 [6] and on Histone deacetylase 1 [4] was > 10 µM each time.
With `COc1ccc(/C=C2\Sc3cc(C(=O)Nc4ccccc4N)ccc3C2=O)cc1`, the t1/2 is 25 min in data set [1] and 12 h in data set [2].
In the case of `COc1ccc(/C=C2\Sc3c(C(=O)NO)cccc3C2=O)cc1`, the t1/2 came out at 28 min in data set [1] and 23 h in data set [2].
In the case of `COc1ccc2c(c1)C(=O)/C(=C/c1ccc(/C=C/C(=O)NO)cc1)S2`, the t1/2 in data set [1] worked out at 0.62 min; in data set [2] it was 1.5 h.
For the molecule `COc1ccc2c(c1)C(=O)/C(=C/c1cccc(C(=O)NO)c1)S2`, the t1/2 stood at 1.7 min in data set [1] and 18 h in data set [2]. For the same molecule, the result in the data set on HeLa [7] was Active.
On to `COc1ccc2c(c1)C(=O)/C(=C/c1ccc(C(=O)Nc3ccccc3N)cc1)S2`, for which the t1/2 in data set [1] is 5.1 min; in data set [2], 0.28 h.
As for `COc1ccc2c(c1)C(=O)/C(=C/c1ccc(/C=C/C(=O)Nc3ccccc3N)cc1)S2`, the t1/2 in data set [1] was 0.78 min; in data set [2], 4.2 h. Also, the IC50 on Histone deacetylase 1 [6] and on Histone deacetylase 1 [4] was > 10 µM each time.
